Measurements taken from patent US20260000689A1, “TARGETING CREB-HEPARAN SULFATE-FGF PATHWAY FOR CANCER TREATMENT” (UNIVERSITY OF SOUTH FLORIDA, priority 2022, published 2026).
“Also recorded” adds a separate entry of the source.

Assays:
Myc-CaP cells [1] = assay: Colony formation of EXT1-overexpressing vs EV MyC-CaP cells with FGFR inhibitor; assay type: cell-based, mice; settings: 1, 5, 10 μm AZD4547 vs DMSO
[2] = system: Myc-CaP cells with EXT1-overexpression; assay: s.c. xenograft prostate cancer mouse model, EXT1-overexpressing Myc-CaP cells; assay type: in vivo, FVB/NJ mice
Text: (§1) FIG. 7A-FIG. 7F show inhibition of CREB or HS attenuates prostate cancer growth. […] 7A) and HS (FIG. 7B) in Myc-CaP cells, and the in vitro cell growth (FIG. 7C) and migration (FIG. 7D).
(§2) FIG. 22E and FIG. 22F show myc-Cap cells in vivo for KG-501 (FIG. 22E) and Surfen (FIG. 22F). FIG. 22G and FIG. 22H show Ext1-overexpressing myc-Cap cells in vivo for KG-501 (FIG. 22G) and Surfen (FIG. 22H).

Myc-CaP cells [3] = assay: Cell migration of Myc-CaP cells; assay type: cell-based, mice
Text: as §1, §2

Myc-CaP cells [4] = assay: In vitro cell growth of Myc-CaP cells; assay type: cell-based, mice
Text: as §1, §2

HS = assay: Expression of HS (heparan sulfate staining) in Myc-CaP cells; assay type: cell-based, mice
Text: as §1, §2

Myc-CaP cells [5] = assay: s.c. xenograft prostate cancer mouse model, Myc-CaP cells; assay type: in vivo, FVB/NJ mice; settings: without EXT1-overexpression
Text: as §1, §2

EXT1 mRNA = assay: Expression of EXT1 mRNA in Myc-CaP cells; assay type: cell-based, mice
Text: as §1, §2

With COc1cc(CCc2cc(NC(=O)c3ccc(N4C[C@@H](C)N[C@@H](C)C4)cc3)n[nH]2)cc(OC)c1 [AZD4547] the “resistance of EXT1-overexpressing cells to FGFR inhibitor in colony formation” value (Myc-CaP cells [1]) was “more resistant” and the “growth of EXT1-overexpressing Myc-CaP cells in s.c. xenograft prostate cancer mouse model” value [2] was “blocks EXT1-overexpression-enhanced prostate cancer growth in vivo”.

For O=C(Nc1ccc(Cl)cc1)c1cc2ccccc2cc1OP(=O)(O)O [KG-501, 2-naphthol-AS-E-phosphate], the migration (Myc-CaP cells [3]) was “does-dependently inhibited”, the “in vitro cell growth” value (Myc-CaP cells [4]) was “does-dependently inhibited” and the “growth of EXT1-overexpressing Myc-CaP cells in s.c. xenograft prostate cancer mouse model” value [2] was “efficiently inhibited; also recorded: attenuated prostate cancer growth in vivo”. For the same compound, the “expression of HS” value (HS) was “does-dependently inhibited”, the “growth of Myc-CaP cells in s.c. xenograft prostate cancer mouse model” value (“growth of Myc-CaP cells” for short) (Myc-CaP cells [5]) was “efficiently inhibited; also recorded: attenuated prostate cancer growth in vivo” and the “expression of EXT1 mRNA” value (EXT1 mRNA) was “does-dependently inhibited”.

Cc1cc(N)c2cc(NC(=O)Nc3ccc4nc(C)cc(N)c4c3)ccc2n1 [Surfen, bis-2-methyl-4-amino-quinolyl-6-carbamide] was tested, and the “growth of EXT1-overexpressing Myc-CaP cells in s.c. xenograft prostate cancer mouse model” value [2] was “efficiently inhibited; also recorded: attenuated prostate cancer growth in vivo”, the “growth of Myc-CaP cells” value (Myc-CaP cells [5]) was “efficiently inhibited; also recorded: attenuated prostate cancer growth in vivo” and the “growth of Myc-CaP cells” value (Myc-CaP cells [5]; listed as surfen) was “blocked PCa growth”.
